Experimental data: patent US20070049564A1 (Wyeth, priority 2005, published 2007)
In brackets after ≈: the same amount, converted by molar mass. Read-outs that look alike come from different tables or passages of the source. One block for each molecule: values may come before it.

Tests used:
Staph. aureus Smith [1] = experiment: In vitro activity (MIC) against Staph. aureus Smith; format: cell-based; settings: Staphylococcus aureus; Table 8
Staph. = experiment: Range of MIC for Staph. strains, including MRSA; settings: for MIC: Staphylococcus aureus
E. coli = experiment: Range of MIC for E. coli strains; settings: for MIC: Escherichia coli
Staph. aureus Smith [2] = experiment: In vivo activity (oral, iv; ED50) against Staph. aureus Smith in mice
E. coli #311 = experiment: In vivo activity (oral, iv; ED50) against E. coli in mice; settings: Escherichia coli
Excerpt: . […] Smith and E. Coli #311 in mammals.
Results of the tests (MIC, oral and IV) are list in Table 7.

E. coli GC 2271 = experiment: MIC, broth microdilution
S. aureus GC 1131 = experiment: MIC, broth microdilution
E. coli GC 2203 = experiment: MIC, broth microdilution
E. coli GC 2236 = experiment: MIC, broth microdilution
E. coli GC 1073 = experiment: MIC, broth microdilution
S. pyogenes GC 4563 = experiment: MIC, broth microdilution
P. aeruginosa GC 2214 = experiment: MIC, broth microdilution
S. pneumoniae+ GC 4465 = experiment: MIC, broth microdilution
Salmonella spp. GC 235 = experiment: MIC, broth microdilution
S. aureus GC 6466 = experiment: MIC, broth microdilution
Salmonella spp. GC 566 = experiment: MIC, broth microdilution
S. aureus GC 6469 = experiment: MIC, broth microdilution
S. aureus GC 1079 = experiment: MIC, broth microdilution
E. coli GC 2233 = experiment: MIC, broth microdilution
E. coli GC 4560 = experiment: MIC, broth microdilution
E. coli GC 2235 = experiment: MIC, broth microdilution
E. faecium GC 4556 = experiment: MIC, broth microdilution
E. faecium GC 2243 = experiment: MIC, broth microdilution
E. faecalis GC 2265 = experiment: MIC, broth microdilution
E. faecalis GC 2267 = experiment: MIC, broth microdilution
E. coli GC 3226 = experiment: MIC, broth microdilution
E. faecalis GC 2242 = experiment: MIC, broth microdilution
E. coli GC 4559 = experiment: MIC, broth microdilution
E. coli GC 6465 = experiment: MIC, broth microdilution
S. pneumoniae* GC 4465 = experiment: MIC, broth microdilution
E. coli GC 2232 = experiment: MIC, broth microdilution
E. coli GC 2270 = experiment: MIC, broth microdilution
S. aureus GC 6335 = experiment: MIC, broth microdilution
S. aureus GC 2216 = experiment: MIC, broth microdilution
S. aureus GC 6467 = experiment: MIC, broth microdilution
c. albicans GC 3066 = experiment: MIC, broth microdilution
E. coli GC 2234 = experiment: MIC, broth microdilution
E. faecalis GC 4555 = experiment: MIC, broth microdilution
S. agalactiae GC 4564 = experiment: MIC, broth microdilution
S. cholerasius GC 1355 = experiment: MIC, broth microdilution
E. coli GC 2272 = experiment: MIC, broth microdilution
S. epidermidis GC 4935 = experiment: MIC, broth microdilution
S. aureus GC 4536 = experiment: MIC, broth microdilution
S. typhimurium GC 2172 = experiment: MIC, broth microdilution
E. coli GC 2231 = experiment: MIC, broth microdilution
[3] = MRSA, read-out: Range of MIC, Staph (Mouse Serum)
[4] = 20 h, read-out: Range of MIC, E. coli (Mouse Serum)
[5] = Staphylococcus aureus, in Mus musculus, po, read-out: ED50 Staph Smith SOD
[6] = iv, read-out: ED50 Staph Smith SIV

MIC (Staph. aureus Smith [1]): 0.12 µg/mL (≈ 0.159 µM)
MIC (Staph.; [3]): 0.12 to 2 µg/mL (≈ 0.159 to 2.65 µM)
MIC (Staph.; MRSA, read-out: Range of MIC, Staph (Water)): 0.12 to 2 µg/mL (≈ 0.159 to 2.65 µM)
MIC (Staph.; MRSA, read-out: Range of MIC, Staph. (mouse serum)): 0.12 to 2 µg/mL (≈ 0.159 to 2.65 µM)
MIC (Staph.; MRSA, read-out: Range of MIC, Staph. (water)): 0.12 to 2 µg/mL (≈ 0.159 to 2.65 µM)
MIC (E. coli; [4]): 0.5 to 2 µg/mL (≈ 0.662 to 2.65 µM)
MIC (E. coli; read-out: Range of MIC, E. coli (mouse serum)): 0.5 to 2 µg/mL (≈ 0.662 to 2.65 µM)
Compound: CCCN(CC(=O)Nc1cc(N(C)C)c2c(c1O)C(=O)C1=C(O)[C@]3(O)C(=O)C(C(N)=O)=C(O)[C@@H](N(C)C)C3CC1C2)C(=O)OCOC(=O)C1CCCCC1 (stereo partly drawn) [Example 33, ({[(2-{[(7S,10aS)-9-(aminocarbonyl)-4,7-bis(dimethylamino)-1,8,10a,11-tetrahydroxy-10,12-dioxo-5,5a,6,6a,7,10,10a,12-octahydrotetracen-2-yl]amino}-2-oxoethyl)(propyl)amino]carbonyl}oxy)methyl cyclohexanecarboxylate]
ED50 (Staph. aureus Smith [2]; Staphylococcus aureus, in Mus musculus, iv, read-out: ED50 SIV (Staph aureus Smith)): 0.48 mg/kg
ED50 (Staph. aureus Smith [2]; Staphylococcus aureus, in Mus musculus, po, read-out: ED50 SOD (Staph aureus Smith)): 4.91 mg/kg
ED50 (Staph. aureus Smith [2]; [5]): 4.91 mg/kg
ED50 (Staph. aureus Smith [2]; [6]): 0.45 mg/kg

MIC (Staph.; [3]): 0.5 to 1 µg/mL (≈ 0.569 to 1.14 µM)
MIC (Staph.; read-out: Minimum inhibitory concentration (MIC), Staph (Human Serum)): > 64 µg/mL
MIC (E. coli; [4]): 0.5 to 1 µg/mL (≈ 0.569 to 1.14 µM)
MIC (E. coli; read-out: Range of MIC, E. coli (Water)): > 64 µg/mL
Compound: CCCCCCCOc1ccc(C(=O)OCOC(=O)N(CC(=O)Nc2cc(N(C)C)c3c(c2O)C(=O)C2=C(O)[C@]4(O)C(=O)C(C(N)=O)=C(O)[C@@H](N(C)C)[C@@H]4C[C@@H]2C3)C(C)(C)C)cc1 [Example 102, ({[(2-{[(5aR,6aS,7S,10aS)-9-(aminocarbonyl)-4,7-bis(dimethylamino)-1,8,10a,11-tetrahydroxy-10,12-dioxo-5,5a,6,6a,7,10,10a,12-octahydrotetracen-2-yl]amino}-2-oxoethyl)(tert-butyl)amino]carbonyl}oxy)methyl 4-(heptyloxy)benzoate]
ED50 (E. coli #311; single intravenous dose (SIV), read-out: ED50 E. coli #311 SIV): 2 to 4 mg/kg
ED50 (E. coli #311; single oral dose (SOD), read-out: ED50 E. coli #311 SOD): > 32 mg/kg
ED50 (Staph. aureus Smith [2]; [5]): 19.8 mg/kg
ED50 (Staph. aureus Smith [2]; [6]): 1.59 mg/kg

Compound: CCCN(CC(=O)Nc1cc(N(C)C)c2c(c1O)C(=O)C1=C(O)[C@@]3(O)C(=O)C(C(N)=O)=C(O)[C@@H](N(C)C)C3CC1C2)C(=O)OCc1oc(=O)oc1C (stereo partly drawn) [Example 108, (5-methyl-2-oxo-1,3-dioxol-4-yl)methyl 2-{[(7S,10aR)-9-(aminocarbonyl)-4,7-bis(dimethylamino)-1,8,10a,11-tetrahydroxy-10,12-dioxo-5,5a,6,6a,7,10,10a,12-octahydrotetracen-2-yl]amino}-2-oxoethyl(propyl)carbamate]
MIC (E. coli GC 2271; pre-incubation in mouse serum): 0.50 UG/ML
MIC (E. coli GC 2271; pre-incubation in water): 0.50 UG/ML
MIC (S. aureus GC 1131; pre-incubation in mouse serum): 0.25 UG/ML
MIC (S. aureus GC 1131; pre-incubation in water): 0.50 UG/ML
MIC (E. coli GC 2203; pre-incubation in mouse serum): 0.50 UG/ML
MIC (E. coli GC 2203; pre-incubation in water): 1 UG/ML
MIC (E. coli GC 2236; pre-incubation in mouse serum): 0.50 UG/ML
MIC (E. coli GC 2236; pre-incubation in water): 2 UG/ML
MIC (E. coli GC 1073; pre-incubation in mouse serum): 0.50 UG/ML
MIC (E. coli GC 1073; pre-incubation in water): 2 UG/ML
MIC (S. pyogenes GC 4563; pre-incubation in mouse serum): 0.12 UG/ML
MIC (S. pyogenes GC 4563; pre-incubation in water): 0.12 UG/ML
MIC (P. aeruginosa GC 2214; pre-incubation in mouse serum): 16 UG/ML
MIC (P. aeruginosa GC 2214; pre-incubation in water): 32 UG/ML
MIC (S. pneumoniae+ GC 4465; pre-incubation in mouse serum): 1 UG/ML
MIC (S. pneumoniae+ GC 4465; pre-incubation in water): 2 UG/ML
MIC (Salmonella spp. GC 235; pre-incubation in mouse serum): 1 UG/ML
MIC (Salmonella spp. GC 235; pre-incubation in water): 4 UG/ML
MIC (S. aureus GC 6466; pre-incubation in mouse serum): 0.50 UG/ML
MIC (S. aureus GC 6466; pre-incubation in water): 1 UG/ML
MIC (Salmonella spp. GC 566; pre-incubation in mouse serum): 1 UG/ML
MIC (Salmonella spp. GC 566; pre-incubation in water): 8 UG/ML
MIC (S. aureus GC 6469; pre-incubation in mouse serum): 0.25 UG/ML
MIC (S. aureus GC 6469; pre-incubation in water): 1 UG/ML
MIC (S. aureus GC 1079; pre-incubation in mouse serum): 2 UG/ML
MIC (S. aureus GC 1079; pre-incubation in water): 4 UG/ML
MIC (E. coli GC 2233; pre-incubation in mouse serum): 0.50 UG/ML
MIC (E. coli GC 2233; pre-incubation in water): 1 UG/ML
MIC (E. coli GC 4560; pre-incubation in mouse serum): 0.12 UG/ML
MIC (E. coli GC 4560; pre-incubation in water): 0.25 UG/ML
MIC (E. coli GC 2235; pre-incubation in mouse serum): 0.50 UG/ML
MIC (E. coli GC 2235; pre-incubation in water): 1 UG/ML
MIC (E. faecium GC 4556; pre-incubation in mouse serum): 0.50 UG/ML
MIC (E. faecium GC 4556; pre-incubation in water): 1 UG/ML
MIC (E. faecium GC 2243; pre-incubation in mouse serum): 0.50 UG/ML
MIC (E. faecium GC 2243; pre-incubation in water): 0.50 UG/ML
MIC (E. faecalis GC 2265; pre-incubation in mouse serum): 1 UG/ML
MIC (E. faecalis GC 2265; pre-incubation in water): 2 UG/ML
MIC (E. faecalis GC 2267; pre-incubation in mouse serum): 1 UG/ML
MIC (E. faecalis GC 2267; pre-incubation in water): 2 UG/ML
MIC (E. coli GC 3226; pre-incubation in mouse serum): 0.50 UG/ML
MIC (E. coli GC 3226; pre-incubation in water): 1 UG/ML
MIC (E. faecalis GC 2242; pre-incubation in mouse serum): 0.50 UG/ML
MIC (E. faecalis GC 2242; pre-incubation in water): 1 UG/ML
MIC (E. coli GC 4559; pre-incubation in mouse serum): 0.50 UG/ML
MIC (E. coli GC 4559; pre-incubation in water): 1 UG/ML
MIC (E. coli GC 6465; pre-incubation in mouse serum): 8 UG/ML
MIC (E. coli GC 6465; pre-incubation in water): 64 UG/ML
MIC (S. pneumoniae* GC 4465; pre-incubation in mouse serum): 0.12 UG/ML
MIC (S. pneumoniae* GC 4465; pre-incubation in water): 0.12 UG/ML
MIC (E. coli GC 2232; pre-incubation in mouse serum): 1 UG/ML
MIC (E. coli GC 2232; pre-incubation in water): 2 UG/ML
Range of MIC, Staph (Mouse Serum) (Staph.; Mouse Serum, including MRSA, Table 1): 0.25 to 2 µg/mL
Range of MIC, Staph (Water) (Staph.; Water, including MRSA, Table 1): 1 to 8 µg/mL
MIC (E. coli GC 2270; pre-incubation in mouse serum): 0.50 UG/ML
MIC (E. coli GC 2270; pre-incubation in water): 1 UG/ML
MIC (S. aureus GC 6335; pre-incubation in mouse serum): 1 UG/ML
MIC (S. aureus GC 6335; pre-incubation in water): 2 UG/ML
MIC (S. aureus GC 2216; pre-incubation in mouse serum): 0.50 UG/ML
MIC (S. aureus GC 2216; pre-incubation in water): 1 UG/ML
MIC (S. aureus GC 6467; pre-incubation in mouse serum): 2 UG/ML
MIC (S. aureus GC 6467; pre-incubation in water): 8 UG/ML
MIC (c. albicans GC 3066; pre-incubation in mouse serum): >64 UG/ML
MIC (c. albicans GC 3066; pre-incubation in water): >64 UG/ML
Range of MIC, E. coli (Mouse Serum) (E. coli; Mouse Serum, Table 1): 0.5 to 2 µg/mL
Range of MIC, E. coli (Water) (E. coli; Water, Table 1): 0.5 to 4 µg/mL
MIC (E. coli GC 2234; pre-incubation in mouse serum): 0.50 UG/ML
MIC (E. coli GC 2234; pre-incubation in water): 2 UG/ML
MIC (E. faecalis GC 4555; pre-incubation in mouse serum): 0.50 UG/ML
MIC (E. faecalis GC 4555; pre-incubation in water): 0.50 UG/ML
MIC (S. agalactiae GC 4564; pre-incubation in mouse serum): 0.12 UG/ML
MIC (S. agalactiae GC 4564; pre-incubation in water): 0.12 UG/ML
MIC (S. cholerasius GC 1355; pre-incubation in mouse serum): 32 UG/ML
MIC (S. cholerasius GC 1355; pre-incubation in water): 64 UG/ML
MIC (E. coli GC 2272; pre-incubation in mouse serum): 0.25 UG/ML
MIC (E. coli GC 2272; pre-incubation in water): 0.50 UG/ML
MIC (S. epidermidis GC 4935; pre-incubation in mouse serum): 1 UG/ML
MIC (S. epidermidis GC 4935; pre-incubation in water): 2 UG/ML
MIC (S. aureus GC 4536; pre-incubation in mouse serum): 0.50 UG/ML
MIC (S. aureus GC 4536; pre-incubation in water): 1 UG/ML
ED50 Staph Smith SIV (Staph. aureus Smith [2]; single intravenous dose (SIV)): >2 mg/kg
ED50 Staph Smith SOD (Staph. aureus Smith [2]; single oral dose (SOD)): >32 mg/kg
MIC (S. typhimurium GC 2172; pre-incubation in mouse serum): 4 UG/ML
MIC (S. typhimurium GC 2172; pre-incubation in water): 32 UG/ML
MIC (E. coli GC 2231; pre-incubation in mouse serum): 2 UG/ML
MIC (E. coli GC 2231; pre-incubation in water): 4 UG/ML
